Measurements reported in patent US20080096967A1, “Formulations for Injection of Catecholic Butanes, Including Ndga Compounds, Into Animals” (priority 2005, published 2008).

Assays:
[1] = Compatibility of IV tubing for delivery of M4N (visual inspection and HPLC); details: PTFE and fluorelastomer, polypropylene, FEP, polyethylene, platinum cured silicone (small size)
Method: In this experiment, various types of tubing were tested for compatibility and for optimizing intravenous delivery of M4N. The tests on compatibility were based on visual inspection and HPLC (high pressure liquid chromatography) analysis.
The visual inspection was conducted as follows: About 5 mL of a formulation to be tested (“formulated material”) were passed through a tubing of about 20 cm in length. The formulated material was kept inside the tube for about 24 hr at room temperature (25° C.). The formulated material was then circulated several times (about 5 times, for example) through the tubing and was collected in a beaker or a collection tube. The formulated material was carefully inspected for precipitates or particulates present, including by holding the beaker or collection tube against a white background followed by a dark background.
The compatibility test using HPLC analysis varied in the methodology depending on the tubing being tested, the length of time and the purpose of the tubing. This test measured the amount of M4N in solution before and after circulation through different tubing.

Beagle dogs = assay: 7-Day intravenous infusion toxicity study of M4N(CPE) in Beagle dogs; assay type: in vivo
Method: This study was conducted to evaluate the toxicokinetic profile of M4N formulated in 30% HP-β-CD and 25% PEG 300 when administered as a single intravenous infusion dose for seven consecutive days in beagle dogs. This study constitutes the first study of this particular formulation of M4N in dogs and was executed to evaluate the toxicity and compare tolerability of a diluted formulation (10 mg/mL versus 5 mg/mL).
A total of twelve beagle dogs (8 male/4 female) were dosed with M4N via a 54-minute (Group 2) or 108-minute (Groups 1, 3 and 4) intravenous infusion. All animals received seven doses, one per day over seven consecutive days.
The following parameters were evaluated: clinical observations and body weights. Test article analysis was performed on Study Days 1 and 7, blood samples (targeting a volume of 2.0 mL) were collected from each animal from an appropriate vessel at the following time points:
Gross necropsies were performed on Groups 1 and 3 animals and all injection sites were processed for histology. […] Discolored urine appeared in Groups 1 and 3. […] The finding is likely indicative of irritation due to multiple needle insertions in the same dosing area (cephalic vein). […] Finally, sporadic observations of diarrhea, emesis, mucoid feces and soft feces were noted. These observations are common in beagle dogs and were considered stress-induced and not test article-related.

[2] = system: C-33A, an HPV-negative human cervical cancer cell line; assay: Cell proliferation and cell death, trypan blue exclusion, C-33A cells; assay type: cell-based; details: for Proliferation Rate: treated/untreated cells
Method: M4N in 10% (w/v) HP-β-CD and 25% (v/v) PEG 300 (hereafter, the “CPE formulation”), M4N in 30% (w/v) HP-β-CD and 25% (v/v) PEG 300 (hereafter, the “CPE 25/30 formulation”) and M4N in 27% (w/v) HP-β-CD and 33% (v/v) PEG 300 (hereafter, the “CPE 33/27 formulation”) was tested for their effects on cell death and proliferation on two different tumor cell lines: HeLa, an HPV-18 positive human cervical cancer cell line, and C-33A, an HPV-negative human cervical cancer cell line M4N in DMSO was also tested in parallel. Both tumor cell lines were treated with increasing amounts of M4N: 0 μM, 20 μM, 40 μM, 60 μM and 80 μM, for 72 hr with the DMSO or the CPE formulation. Each formulation was added to total 1% of the growth media (Minimal Essential Medium with L-glutamine supplemented with 10% fetal bovine serum, 1 mM sodium pyruvate, 1× non-essential amino acid solution, and 1,000 IU/mL penicillin/1,000 μg/mL streptomycin solution). Control cells were grown under the same conditions and were left untreated. After 72 hr of treatment or no treatment, the total number of cells and the number of live cells in each sample were counted, using the trypan blue exclusion method. The cell proliferation rate and the percentage of dead cells in each sample were analyzed. Results of this experiment are shown in FIG. 1, FIG. 2, and Tables 6 through 12.
FIG. 1 is a graphical representation of the ratio of the number of treated cells/number of untreated cells plotted against increasing concentrations of M4N in either the DMSO formulation or the CPE formulation for treatment of the C-33A cells and HeLa cells. FIG. 2 is a graphical representation of the percentage of dead cells plotted against increasing concentrations of M4N and in either DMSO formulation or the CPE formulation for treatment of the two cancer cell lines, C-33A and HeLa cells in culture.

[3] = M4N 20 μM in CPE formulation, 72 hr
[4] = M4N 60 μM in CPE formulation, 72 hr
[5] = M4N 80 μM in CPE formulation, 72 hr

COc1ccc(C[C@@H](C)[C@@H](C)Cc2ccc(OC)c(OC)c2)cc1OC [Formulation M4N, meso-1,4-bis(3,4-dimethoxyphenyl)-2,3-dimethylbutane]
compatibility of tubing for delivery of M4N (threshold about 90% of M4N remaining in solution) [1]: compatible
injection site histology, treated vs controls (Beagle dogs; Group 3 (90 mg/kg) vs Group 1 (vehicle)): more irritating than the vehicle
gross necropsy findings (Beagle dogs; Groups 1 and 3): No other gross findings
detailed clinical observations (Beagle dogs; Groups 2, 3 and 4 (45 or 90 mg/kg), daily IV infusion for 7 days, 30% HP-β-CD and 25% PEG 300): transient reversible uncoordination of hindlimbs
cell death, share of the cell population ([2]; 80 μM or […] M4N in CPE formulation): about 20%
cell death, share of the cell population ([2]; 80 μM or […] M4N in DMSO formulation): about 40%
M4N sufficient to cause about a 50% inhibition in cell proliferation ([2]; CPE formulation, 72 hr): ~7.2 µg/mL
% Dead Cells [2, 3]: 7.0%
% Viability [2, 3]: 93.0%
Proliferation Rate [2, 3]: 0.43
% Dead Cells ([2]; M4N 20 μM in DMSO, 72 hr): 17.4%
% Viability ([2]; M4N 20 μM in DMSO, 72 hr): 82.6%
Proliferation Rate ([2]; M4N 20 μM in DMSO, 72 hr): 0.20
Proliferation Rate ([2]; M4N 40 μM in CPE formulation, 72 hr): 0.43
% Dead Cells ([2]; M4N 40 μM in DMSO, 72 hr): 33.0%
% Viability ([2]; M4N 40 μM in DMSO, 72 hr): 67.0%
Proliferation Rate ([2]; M4N 40 μM in DMSO, 72 hr): 0.15
% Dead Cells [2, 4]: 10.6%
% Viability [2, 4]: 89.4%
Proliferation Rate [2, 4]: 0.22
% Dead Cells ([2]; M4N 60 μM in DMSO, 72 hr): 39.6%
% Viability ([2]; M4N 60 μM in DMSO, 72 hr): 60.4%
Proliferation Rate ([2]; M4N 60 μM in DMSO, 72 hr): 0.14
% Dead Cells [2, 5]: 22.5%
% Viability [2, 5]: 77.5%
Proliferation Rate [2, 5]: 0.15
% Dead Cells ([2]; M4N 80 μM in DMSO, 72 hr): 43.3%
% Viability ([2]; M4N 80 μM in DMSO, 72 hr): 56.7%
Proliferation Rate ([2]; M4N 80 μM in DMSO, 72 hr): 0.11
Cell proliferation rate ([2]; M4N in DMSO or CPE formulation vs non-M4N-treated controls in the same formulation): reduced
